“Also recorded” adds a separate entry of the source. No end group written: not given here. *: point of attachment. 11‑(ethylthio)undecanoyl = CCSCCCCCCCCCCC(=O)*; 125I = [125I]*
Columns and labels:
[1] = target: T1, yeast NMT (Saccharomyces cerevisiae, UniProt P14743); experiment: kinetic characterisation of fatty acid analogs as yeast NMT substrates; type: biochemical; conditions: for Peptide Vm: peptide GNAAS[125I]YRR varied, fatty acid analog at 15 μM; for Peptide Vm / Acyl CoA Vm: myristate control = 100%; for Acyl CoA Vm / Km: radiolabelled peptide at its Km, analog varied; for Km: read-out: Acyl CoA Km
T1 construct: 11,000-fold purified preparation of yeast NMT; endogenous in cells; host or cells: yeast (enzyme purified from yeast, 11,000-fold)
T1 sequence (P14743 1-455): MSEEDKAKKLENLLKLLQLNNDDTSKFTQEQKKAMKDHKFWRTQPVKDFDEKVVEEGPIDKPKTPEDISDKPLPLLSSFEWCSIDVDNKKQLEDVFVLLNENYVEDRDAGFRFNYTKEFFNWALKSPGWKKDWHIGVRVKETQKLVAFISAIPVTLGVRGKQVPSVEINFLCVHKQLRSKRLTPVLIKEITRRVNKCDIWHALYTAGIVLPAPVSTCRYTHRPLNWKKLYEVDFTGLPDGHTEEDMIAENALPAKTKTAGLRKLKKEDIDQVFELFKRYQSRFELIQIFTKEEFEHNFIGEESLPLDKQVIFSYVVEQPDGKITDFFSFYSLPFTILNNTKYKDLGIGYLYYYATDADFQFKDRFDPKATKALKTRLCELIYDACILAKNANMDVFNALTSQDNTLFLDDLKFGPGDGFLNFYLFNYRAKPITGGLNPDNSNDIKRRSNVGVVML
Description: Similar results were obtained using an 11,000-fold purified preparation of yeast NMT [Towler et al., Proc. Natl. Acad. Sci. USA 84, 2708-2712 (1987)].
Other illustrative examples of the oxy- and thio-substituted fatty acid analog substrate compounds of the invention were synthesized in Examples 6 to 14 and tested in Example 15 as substrates for the yeast NMT.
(§1) For these Examples, each analog synthesized is characterized by ^1 H and ^13 C NMR as well as mass spectroscopy. The analogs are then characterized kinetically as NMT substrates. Briefly, fatty acid analogs are converted to their CoA esters with Pseudomonas CoA ligase and incubated with the iodinated peptide GNAAS[^125 I]YRR and a source of NMT. […] The radiolabelled peptide is then used at concentrations which will lead to 50% enzyme saturation (i.e., at its Km) for the determination of fatty acid analog kinetic characteristics. Representative analogs with sulfur or oxygen in the backbone of the fatty acid chain serve as good substrates for NMT in vitro and will compete for incorporation of ^3 H labelled myri-state into yeast proteins in vivo. In addition, these analogs differ markedly in hydrophobicity from myri-state as measured both by C18 reverse phase HPLC elution profiles and by 2-octanol/water partition coefficients. The analog CH3 O(CH2)11 COOH, for example, partitions into water 20 fold better than myristate. It is believed that these analogs will be incorporated into mammalian acylproteins in vivo and that their incorporation into these proteins will drastically alter protein processing or targeting. It is further believed that the incorporation of fatty acid analogs of both myristate and palmitate into ester linked and phosphatidyl inositol glycan linked acylproteins will also dramatically alter their properties. Since many viral proteins and oncogenes are acylated, these compounds represent a new class of potential antiviral and antineoplastic agents.

[2] = C18 reverse phase HPLC elution of fatty acyl peptides (hydrophobicity); type: physicochemical; conditions: for Elution Time: C18 reverse phase HPLC, acyl derivative of GNAAS[125I]YRR, Table 2; for elution earlier than corresponding myristoyl-peptide: C-18 reverse phase HPLC, FIG. 2
Method: The fatty acid analog acyl-peptide eluted 7 minutes earlier than the corresponding myristoyl peptide. The free peptide elutes in the void volume (3-5minutes).
This difference was evident when the HPLC elution characteristics of fatty acyl peptides were examined. The elution time of a particular acyl-peptide depends strongly on the peptide sequence as well as on the acyl chain attached to that peptide. For example, the elution times of fatty acyl derivatives of GNAAAARR are (in minutes) decanoic acid, 9; dodecanoic acid, 18; myristic acid, 24; and palmitic acid, 30. Elution times for fatty acyl derivatives of GNAAS[^125 I]YRR are 23 and 28 minutes for C12 and C14 fatty acids, respectively (FIG. 2). […] Such a change could alter the biological activity of myristoyl proteins.
as §1

[3] = test system: wheat germ NMT; experiment: in vitro myristoylation assay with partially purified wheat germ NMT; type: biochemical
Method: Myristoyl CoA and fatty acid analog CoA were generated by incubation of the fatty acid or analog with CoA, ATP and CoA ligase. This reaction mixture was added to wheat germ NMT and Gly-Asn-Ala-Ala-Ser- [^125 I]Tyr-Arg-Arg in the presence of 0.03% Triton® X-100. Reaction products were characterized by reverse phase HPLC and gamma counting.
The invention is illustrated in greater detail in the following Examples 1 to 15 by the synthesis and testing of representative compounds of the invention as myristoylating enzyme substrates. Accordingly, the invention is first illustrated in Examples 1 to 5 by the chemical synthesis of a sulfur-containing analog of myristic acid, namely 11-(ethylthio)undecanoicacid, CH3 CH2 --S--(CH2)10 COOH, which is then tested in vitro as a wheat germ NMT substrate. Wheat germ NMT is a protein similar to yeast NMT. The purity and chemical identity of the synthesized compound were examined using ^1 H and ^13 C NMR as well as mass spectroscopy. The assay that was used to characterize the substrate specificity of wheat germ NMT measures the rate of attachment of a radiolabelled fatty acid to an unlabelled peptide. The fatty acid analog synthesized was nonradioactive.
Characterization of Partially Purified Wheat Germ NMT--Assays for NMT activity were performed using a procedure detailed previously by Towler and Glaser, Proc. Natl. Acad. Sci. USA 83, 2812-2816 (1986). Briefly, the in vitro assay measures the transfer of radiolabelled fatty acid from acyl CoA to a synthetic peptide substrate. The acylpeptide product is identified by reverse phase HPLC. Time and enzyme dependence were evaluated by varying the reaction time or the enzyme concentration. […] Fatty acid specificity was examined essentially as described by Towler et al., J. Biol. Chem. 262, 1030-1036 (1987), except that the peptide Gly-Ser-Ser-Lys-Ser-Lys-Pro-Lys rather than Gly-Asn-Ala-Ala-Ala-Ala-Arg-Arg was used to compare palmitate and myristate utilization by wheat germ NMT. This was necessary because of the presence of a large, peptide-independent peak which co-eluted with a palmitoyl-Gly-Asn-Ala-Ala-Ala-Ala-Arg-Arg standard. [^3 H]Palmitate and [^3 H]myristate were used in this comparison. [^14 C]fatty acids were used to compare C-10, C-12 and C-14 chain lengths. Fatty acyl CoA concentrations in these assays were determined by a modification of the method of Hosaka et al., Methods Enzymol. 71, 325-333 (1981).
Characterization of the Fatty Acid Analog--Gly-Asn-Ala-Ala-Ser-[^125 I]Tyr-Arg-Arg as prepared in Example 2, above, was tested in an in vitro myristoylation system which was modified from that used with radiolabelled fatty acids. […] 20-fold more wheat germ NMT (480-fold purified as in Example 3, above) was used for these assays than for assays which employed [^3 H] myristate. […] Double reciprocal plots were generated for the iodinated peptide with both myristic acid and the sulfur analog by altering the peptide concentration in the presence of a constant amount of fatty acid or analog. […] The assays contained 0.03% Triton X-100 to maintain the solubility of the fatty acids.

[4] = CoA ester, 40 μM iodinated peptide, 0.03% Triton X-100, FIG. 1

| Compound | Peptide Vm [1] [%] | Acyl CoA Vm [1] [%] | Km [1] [µM] | Elution Time [2] [min] | also measured |
| --- | --- | --- | --- | --- | --- |
| CCCOCCCCCCCCCC(=O)O [H, 10-(Propoxy)decanoic acid] | 150 | 250 | 6.1 | 11 to 12 |  |
| CCCCCCCCOCCCCC(=O)O [F, 5-(octyloxy)pentanoic acid] | 335 | 675 | 1.6 | 16 |  |
| CCCCOCCCCCCCCCCC(=O)O [Compound I, 11-(1-Butoxy)undecanoic acid] | 25 | 80 | 1 | 19 | effectiveness as NMT substrate, in words [1]: less effective |
| CCSCCCCCCCCCCC(=O)O [A, 11-(Ethylthio)undecanoic acid] | 98 | 130 | 1.4 | 18 | Km compared with C14:0 fatty acid ([1]; 11,000-fold purified yeast NMT): indistinguishable; Vmax compared with C14:0 fatty acid ([1]; 11,000-fold purified yeast NMT): indistinguishable; Km for the analog relative to myristate [3, 4]: 1.5 times higher; Vmax for the analog relative to myristate [3, 4]: 3.5 times higher; Km ([3]; fatty acid or analog at 5 μM, peptide varied, read-out: Km of peptide substrate Gly-Asn-Ala-Ala-Ser-[125I]Tyr-Arg-Arg): 7 µM; ability to act as a substrate for myristoyl CoA: protein N-myristoyl transferase (NMT) ([3]; in words): leaves intact; substrate quality of CoA ester for wheat germ NMT compared with myristoyl CoA ([3]; in words): at least as good a substrate; apparent maximal velocity relative to myristic acid ([3]; peptide varied, fatty acid or analog at 5 μM): 2.3 times higher; hydrophobicity compared with myristic acid, in words [2]: decreases its hydrophobicity; also recorded: significantly different |
| CCCSCCCCCCCCCC(=O)O [G, 10-(Propylthio)decanoic acid] | 245 | 250 | 1.5 | 18 |  |
| COCCCCCCCCCCC(=O)O [D, 11-(Methoxy)undecanoic acid] | 232 | 163 | 6.9 | 12 to 13 |  |
| CCCCCCCCCCCC(=O)O [dodecanoic acid, reference compound] |  |  |  |  | elution time of fatty acyl derivative of GNAAAARR ([2]; reverse phase HPLC): 18 min; elution time of fatty acyl derivative of GNAAS[125I]YRR ([2]; reverse phase HPLC, FIG. 2, text): 23 min |
| C#CCOCCCCCCCCCC(=O)O [J, 10-(2-Propynoxy)decanoic acid] | 200 | 320 | 6.5 | 9 |  |
| CCCCCCCCCC(=O)O [decanoic acid, reference compound] |  |  |  |  | elution time of fatty acyl derivative of GNAAAARR ([2]; reverse phase HPLC): 9 min |
| CCCCCCCCCCCCCCCC(=O)O [palmitic acid, reference compound] |  |  |  |  | elution time of fatty acyl derivative of GNAAAARR ([2]; reverse phase HPLC): 30 min |
| 11-(ethylthio)undecanoyl-GNAAS[^125 I]YRR ({11‑(ethylthio)undecanoyl}-GNAASY(125I)RR) [fatty acid analog acyl-peptide formed by NMT from compound A and iodinated peptide GNAASYRR] |  |  |  |  | elution earlier than corresponding myristoyl-peptide [2]: seven; elution earlier than corresponding myristoyl-peptide ([2]; listed as 11-(ethylthio)undecanoyl-GNAASYRR[^125 I]): 7 min |
| CCOCCCCCCCCCCC(=O)O [B, 11-(Ethoxy)undecanoic acid] | 62 | 64 | 1.8 | 12 |  |
| CCCCCCCCSCCCCC(=O)O [C, 5-(Octylthio)pentanoic acid] | 213 | 160 | 1.5 | 24 |  |
